The values below come from ChEMBL document CHEMBL3507680, “University of Dundee, Gates Library screen for HepG2 cell viability”.

The series can be described thus: Human HepG2 cell viability assay in 384 well format. Particulars: HepG2 cells, read-out: Inhibition. Also on record: dose 125 nL, time 70.5 hour; cytotoxicity at 70.5 h: concentration not given beside the values. It counts as toxicity, cell-based.

Regarding `CC(NC(=O)C(C)(C)C#N)c1ccc(OCC2CC2)c(F)c1` (stereo not drawn), the cytotoxicity at 70.5 h is -6.52%.
To `COc1ccc(S(=O)(=O)NC(=O)c2c(C)noc2C(C)C)cc1OC` belongs -2.97%; to `CC(NC(=O)Cc1ccon1)c1ccc(OCC2CC2)c(F)c1` (stereo not drawn), -7.52%; to `CC(NC(=O)c1csnn1)c1ccc(OCC2CC2)c(F)c1` (stereo not drawn), 14.5%.
In the case of `Cc1cc(CC(=O)NC(C)c2ccc(OCC3CC3)c(F)c2)n[nH]1` (stereo not drawn), the cytotoxicity at 70.5 h is -7.64%.
Regarding `CC(NC(=O)Cn1ccnc1)c1ccc(OCC2CC2)c(F)c1` (stereo not drawn), the cytotoxicity at 70.5 h is 0.552%.
Consider `CCc1nccn1C1CCCN(C(=O)c2cncn2-c2ccccc2)C1` (stereo not drawn), for which the cytotoxicity at 70.5 h is -6.28%.
For the compound `CCc1csc(C2CCCN(C(=O)c3ccc4c(c3)OCO4)C2)n1` (stereo not drawn), the cytotoxicity at 70.5 h was determined as 13.2%.
Regarding `CCc1nccn1C1CCCN(C(=O)c2ccnc(C)n2)C1` (stereo not drawn), the cytotoxicity at 70.5 h was -7.48%.
In the case of `CC(C(=O)N(C)C)N1CCCN(C(=O)Oc2ccccc2)CC1` (stereo not drawn), the cytotoxicity at 70.5 h is -9.71%.
On to `COCc1csc(NC(=O)N2CCC(Cc3cnn(C)c3)C2)n1` (stereo not drawn), for which the cytotoxicity at 70.5 h was -4.37%.
The value for `CCNC(=O)CN1CCN(c2cc(C)nc(-c3ccncc3)n2)CC1` was -0.76%; that for `CC(C)CNC(=O)CNC(=O)NC(C)COc1ccccc1F` (stereo not drawn) was -13.5%.
Take `COc1ccc2c(c1)CN(CC(=O)NC1CCCC1)CC2`: the cytotoxicity at 70.5 h is -12.6%.
Turning to `CC(C)(C)c1n[nH]c(C2CN(C(=O)c3cc(C4CC4)[nH]n3)CCO2)n1` (stereo not drawn), the cytotoxicity at 70.5 h is -1.31%.
With `CC(C)(C)c1n[nH]c(C2CN(C(=O)c3cnc[nH]3)CCO2)n1` (stereo not drawn), the cytotoxicity at 70.5 h was -7.66%.
As to `Cn1cc(CC2CCN(C(=O)NCc3csc(C4CC4)n3)C2)cn1` (stereo not drawn), the cytotoxicity at 70.5 h came out at 0.703%.
With `CC(C)c1n[nH]c(C2CN(C(=O)c3cc(C4CC4)on3)CCO2)n1` (stereo not drawn), the cytotoxicity at 70.5 h is -11.3%.
The value for `O=C(NCc1nnc2n1CCC2)NCC1(c2cccc(F)c2)CC1` was -5.65%.
`Cc1cnn(CC2CCCN2C(=O)CCc2ccco2)c1` (stereo not drawn): the cytotoxicity at 70.5 h is -6.55%.
`O=C(NCCc1nnc2n1CCC2)NCC1(c2ccccc2)CC1`: the cytotoxicity at 70.5 h stood at 14%.
On to `Cc1nc(C)c(C(=O)N2CCCC(n3ccnc3C)C2)s1` (stereo not drawn), for which the cytotoxicity at 70.5 h is -3.06%.
To `COCCCNC(=O)c1ccccc1S(C)(=O)=O` belongs -13.3%.
To `Cc1cnn(CC2CCCN2C(=O)CCc2c(C)noc2C)c1` (stereo not drawn) belongs 12.1%; to `COc1ncccc1C(=O)N1CCCC(n2ccnc2C)C1` (stereo not drawn), -10.3%; to `CCOc1nnc(CN(C)C2CCCN(c3ccc(C)nn3)C2)s1` (stereo not drawn), -3.1%.
Consider `CSc1nsc(NC(=O)N2CCc3ccccc3C2)n1`, for which the cytotoxicity at 70.5 h is -4.59%.
As for `Cc1ncc(CN(C)C2CCCN(c3cccnn3)C2)s1` (stereo not drawn), the cytotoxicity at 70.5 h was -2.85%.
For the compound `CN(C)c1ncc(CNS(=O)(=O)c2cc(F)ccc2Cl)n1C`, the cytotoxicity at 70.5 h was -9.08%.
On to `CCCN1C(=O)C2(CCCCC2)NC1c1c[nH]nc1-c1cccnc1` (stereo not drawn), for which the cytotoxicity at 70.5 h was 12.8%.
With `CC(C(=O)Nc1ncccn1)N1CCc2[nH]nc(C(F)(F)F)c2C1` (stereo not drawn), the cytotoxicity at 70.5 h is -6.74%.
`CC(c1ccccc1)N1CCC(NC(=O)CCc2ccsc2)CC1` (stereo not drawn): the cytotoxicity at 70.5 h was -7.82%.
`COc1ccc(-n2ccc(CNCc3ccc(OC)c(O)c3)n2)cc1`: the cytotoxicity at 70.5 h was found to be 2.11%.
Turning to `NS(=O)(=O)CCNC(=O)c1cc2cccc(F)c2o1`, the cytotoxicity at 70.5 h was found to be 18%.
Consider `CN(C)c1ncc(CNS(=O)(=O)c2cccc3ccccc23)n1C`, for which the cytotoxicity at 70.5 h is -11.7%.
Consider `COc1nc(C)ccc1CNC(=O)NC(C)Cc1c(C)nn(C)c1C` (stereo not drawn), for which the cytotoxicity at 70.5 h was -9.98%.
The value for `CCC1(c2ccc(NS(=O)(=O)c3ccc(Cl)s3)cc2)CCC(=O)NC1=O` (stereo not drawn) was -11.2%; that for `CC(C)CN1C(=O)C2(CCCC2)NC1c1c[nH]nc1-c1cccnc1` (stereo not drawn) was -3.57%; that for `CC(=O)NCC1CCN(c2ccnc3ccc(Br)cc23)CC1` was -2.63%.
For `Cc1ccc(-n2nnnc2C2(NCc3ccco3)CCCC2)cc1`, the cytotoxicity at 70.5 h is -13.6%.
In the case of `CCN(CCCNC(=O)c1cc2cccc(F)c2o1)S(C)(=O)=O`, the cytotoxicity at 70.5 h is -8.74%.
As to `COc1ccccc1CC(C)(C)NC(=O)CN(C)C(C)C`, the cytotoxicity at 70.5 h is -11.5%.
In the case of `O=C(CC1CCCO1)NCCc1ccccc1Br` (stereo not drawn), the cytotoxicity at 70.5 h is -2.65%.
`CCC(CNS(N)(=O)=O)Oc1ccccc1F` (stereo not drawn): the cytotoxicity at 70.5 h is -7.45%.
To `CN1C(=O)CC(N(C)Cc2nc3ccccc3c(=O)[nH]2)C1=O` (stereo not drawn) belongs 23.4%.
To `CC(C)CCN1C(=O)CC(N(C)Cc2nc3ccccc3c(=O)[nH]2)C1=O` (stereo not drawn) belongs -6.43%.
Turning to `CC(NC(=O)c1cccnc1N(C)C)c1ccccc1Br` (stereo not drawn), the cytotoxicity at 70.5 h is 20.1%.
As to `CN(C)c1ccc(NC(=O)NCc2cccs2)cn1`, the cytotoxicity at 70.5 h was -6.16%.
In the case of `CN(C)c1ccc(NC(=O)NCc2ccc(Cl)s2)cn1`, the cytotoxicity at 70.5 h was -7.08%.
Take `CCC(NCc1ccccc1Cl)c1ccccc1OCC(=O)NC` (stereo not drawn): the cytotoxicity at 70.5 h was -3.07%.
On to `Cc1nc2sccn2c1CNc1ccc(C(=O)O)cc1`, for which the cytotoxicity at 70.5 h was -7.07%.
Consider `Cc1nc2sccn2c1CNc1cc(C(=O)O)ccc1F`, for which the cytotoxicity at 70.5 h was -7.72%.
Turning to `O=C(CNC(=O)C1CCCC1)NCC(O)c1ccc2ccccc2c1` (stereo not drawn), the cytotoxicity at 70.5 h is -0.471%.
With `CC(C)(C)CC(=O)NCC(=O)NCC(O)c1ccc2ccccc2c1` (stereo not drawn), the cytotoxicity at 70.5 h was 4.11%.
With `CC(C)n1ccc(=O)nc1SC1CCN(c2ccccc2F)C1=O` (stereo not drawn), the cytotoxicity at 70.5 h is -1.73%.
On to `O=C1OCCN1c1cccc(CNCc2cc(F)ccc2F)c1`, for which the cytotoxicity at 70.5 h is 22.6%.
As for `CS(=O)(=O)NC(=O)CCc1cccc(OC2CCCC2)c1`, the cytotoxicity at 70.5 h is -5.51%.
To `COc1cc(F)c(C(C)NC(=O)c2cccnc2C)cc1OC` (stereo not drawn) belongs 2.35%; to `COC(=O)CCC(=O)Nc1ccc(Br)c(C)n1`, -0.954%.
The value for `CCc1nc(CC(=O)N2CCC(C(=O)N3CCCCC3)CC2)cs1` was -4.54%.
For `CC(C)CNC(=O)CNC(=O)NCC(O)c1ccc2ccccc2c1` (stereo not drawn), the cytotoxicity at 70.5 h is -3.3%.
The value for `O=C(O)CN1CCC(c2ccccc2)CC1` was -3.19%; that for `CNC(=O)C(NC(=O)CCc1cccc(OC2CCCC2)c1)C(C)C` (stereo not drawn) was 6.19%.
The value for `CCn1cc(S(=O)(=O)N2CCC(C)Sc3ccccc32)cn1` (stereo not drawn) was -1.33%; that for `CCn1cc(S(=O)(=O)N2CCCSc3ccccc32)cn1` was -7.44%.
To `CCC(=O)NC1CCCN(Cn2nc(C(C)(C)C)ccc2=O)C1` (stereo not drawn) belongs -4.43%.
Consider `Cc1ccc(N(C)Cc2nnnn2C2CC2)c(C)c1`, for which the cytotoxicity at 70.5 h is -5.96%.
In the case of `CC(C)c1ccc(CNC(C)c2ccc(S(=O)(=O)N(C)C)cc2)cc1` (stereo not drawn), the cytotoxicity at 70.5 h was -2.78%.
As to `CCOCC1CCN(C(=O)c2sc(C)cc2OC(F)F)CC1`, the cytotoxicity at 70.5 h was -5.96%.
For the compound `COc1ccccc1C1(CNCc2cccc(O)c2)CCOCC1`, the cytotoxicity at 70.5 h is -2.11%.
On to `O=C(c1ccncc1)N(CCO)Cc1cc(Br)ccc1F`, for which the cytotoxicity at 70.5 h is -10.4%.
As to `COc1ccccc1C1(CNCc2cccc(C#N)c2)CCOCC1`, the cytotoxicity at 70.5 h is -9.16%.
For `Cc1cc(C)cc(OCCCn2nc3ccccn3c2=O)c1`, the cytotoxicity at 70.5 h is -13.4%.
For the compound `O=C(NCCC(=O)N1CCCC1)c1cccnc1`, the cytotoxicity at 70.5 h was 17.4%.
For the compound `Cc1ccc(OCCSCCn2nc3ccccn3c2=O)cc1`, the cytotoxicity at 70.5 h is -10.4%.
To `COc1cccc(CNCCNS(=O)(=O)Cc2ccccc2)c1` belongs -6.4%; to `COCCC(Cc1cccc(Br)c1)C(N)=O` (stereo not drawn), -7.63%; to `CC(C)CC(Cc1cccc(Br)c1)C(=O)O` (stereo not drawn), 22.2%.
Regarding `CCCNC(=O)CNc1ccccc1OCCC(=O)OC`, the cytotoxicity at 70.5 h was -7.23%.
Take `CC1CCC(NC(=O)NCC(C)(C)CCS(C)(=O)=O)CC1` (stereo not drawn): the cytotoxicity at 70.5 h was -4.98%.
Take `CNC(=O)CN(C(=O)c1ccc(SC)o1)c1cccc(F)c1`: the cytotoxicity at 70.5 h was -0.365%.
Take `CCCN1CCCN(S(=O)(=O)c2cnc3onc(C)c3c2)CC1`: the cytotoxicity at 70.5 h was found to be 2.21%.
Turning to `O=c1[nH]c2csnc2c(=O)n1Cc1ccc(Br)cc1`, the cytotoxicity at 70.5 h was -10.2%.
For `CN(C)c1nc(CNC(=O)N[C@H](CO)c2ccccc2)cs1`, the cytotoxicity at 70.5 h came to 30.7%.
Turning to `CCN(Cc1ccc(Cl)c(Cl)c1)C(=O)CCn1cncn1`, the cytotoxicity at 70.5 h is -10.7%.
For the compound `Cc1cccc2nc(CNCc3cccc4c3OCCCO4)cn12`, the cytotoxicity at 70.5 h is -0.513%.
As to `Cc1noc(C)c1Cc1nc(N(C)C)no1`, the cytotoxicity at 70.5 h was -12.3%.
Take `CC(C)OCCSCCn1nc2ccccn2c1=O`: the cytotoxicity at 70.5 h is -12.9%.
Turning to `Cc1cc(C(=O)N2CCCN(c3nccs3)CC2)c(C)n1C(C)C`, the cytotoxicity at 70.5 h stood at 29.5%.
To `COCCN(c1ccncc1)S(=O)(=O)c1cc(C)c(F)cc1F` belongs 15.9%; to `CC(C)OCCN(C)CC(c1cccs1)N1CCOCC1` (stereo not drawn), 29.2%; to `N#Cc1cc(F)c(NCCc2ccc(S(N)(=O)=O)cc2)c(F)c1`, -2.35%.
As for `CN(C)c1ncc(CNC(=O)Nc2ccccc2F)n1C`, the cytotoxicity at 70.5 h is -1.14%.
Regarding `CC(O)(CNc1ccccn1)c1ccccc1` (stereo not drawn), the cytotoxicity at 70.5 h came out at 19.5%.
As to `COc1cccc(C(=O)NC(C)CCN2CCOCC2)c1F` (stereo not drawn), the cytotoxicity at 70.5 h is -5.81%.
In the case of `CCS(=O)(=O)c1ccc(CNc2c(Cl)cccc2C#N)cc1`, the cytotoxicity at 70.5 h was -1.09%.
The value for `CN(C1CCCC1)C(C)(C)C(=O)NCCNC(N)=O` was -0.603%.
For `O=C(CCc1ccccc1)N1CCCCC1C1OCCO1` (stereo not drawn), the cytotoxicity at 70.5 h was -3.98%.
With `COc1cccc(CSCC(=O)NCc2cccnc2)c1`, the cytotoxicity at 70.5 h was -3.51%.
Consider `CC1CN(C(=O)NCCn2ccnc2)CCO1` (stereo not drawn), for which the cytotoxicity at 70.5 h was -1.49%.
On to `O=C(CCN1CCSCC1c1ccccc1)N1CCOCC1` (stereo not drawn), for which the cytotoxicity at 70.5 h was found to be 7.46%.
Regarding `CN(C)C(C)(C)CNCc1cn(C)nc1-c1cccnc1`, the cytotoxicity at 70.5 h was determined as 17.8%.
To `COc1ccc(CNc2c(C)nn(C(C)C)c2C)cc1OC` belongs -2.06%.
